Assay results as given in patent US20150322033A1, “ANTIBACTERIAL AGENT” (priority 2012, published 2015).
≈ marks a conversion by molar mass, not a printed value. Where two headings read alike, the source gives them in different places.

Legend:
[1] = tested on: S. aureus FDA209P (ATCC 6538P); assay: microbe, parasite or virus in culture; assay type: cell-based, Staphylococcus aureus; settings: for MIC: Staphylococcus aureus
Protocol: (§1) S. aureus Mu50 (refer to Hiramatsu, K., Hanaki H., et al., J. Antimicrob. Chemother., 1997, 40(1), 135-6) or S. aureus FDA209P (ATCC 6538P) was cultured overnight at 37° C. in 4 mL of TBS (Tryptical Soy Broth, produced by Becton Dickinson) with shaking. After completion of the culture, the cells were suspended in fresh TBS to prepare a cell suspension showing an absorbance of 0.3 at 578 nm. Then, the cell suspension was diluted 500 times with CAMHB mentioned above.
(§2) CAMHB containing each test compound at each of the aforementioned concentrations was added to each well of a 96-well plate in a volume of 50 μL/well, the aforementioned cell suspension diluted 500 time was added to the well in a volume of 50 μL/well, and stationary culture was carried out overnight at 37° C.
(§3) MIC values (mg/L) of the flavones and quinolones against the strains were measured in the same manner as that of the measurement of MIC of Example 1, except that CAMHB containing each of the aforementioned flavones and quinolones prepared in Example 2 was used instead of CAMHB containing each of the test compounds.
(§4) MIC values of the flavones and quinolone for the strains were measured in the same manners as those of Example 1, except that S. aureus Mu50 NR-1 was also used as Staphylococcus aureus in addition to S. aureus FDA209P and S. aureus Mu50, cell suspensions of the strains were prepared.
(§5) In the same manner as that of Example 1, MIC values of M-246, M-21, J-Q21, and J-Q12.1 for Staphylococcus aureus were measured. M-246 and M-21 were obtained as commercial products, and as J-Q21 and J-Q12.1, those synthesized in Examples 6 and 7 were used.

[2] = tested on: S. aureus Mu50; assay: microbe, parasite or virus in culture; assay type: cell-based, Staphylococcus aureus; settings: for MIC: Staphylococcus aureus; for MIC (mg/L) Mu50: Example 1, Tables 1 to 10
Protocol: as §1, §2, §3, §4, §5

[3] = Example 1, Tables 1 to 10, read-out: MIC (mg/L) FDA209P
[4] = MU50, read-out: MIC (mg/L) Mu50, Example 1, Tables 1 to 10

Row | Compound | MIC [1, 3] [mg/L] | MIC [2, 4] [mg/L] | MIC (mg/L) FDA209P ([1]; Example 1, Tables 1 to 10) [mg/L] | MIC (mg/L) Mu50 [2] [mg/L] | also measured
1 | O.Oc1cc(O)c2c(c1)OC(c1ccc(O)c(O)c1)C(O)C2 (single isomer, unassigned; (+)) [compound 132, (+)-3,3′,4′,5,7-Flavanpentol Hydrate] | 128 | 128 | – | – | –
2 | COc1cc(OC)c2c(=O)cc(-c3cc(OC)c(OC)c(OC)c3)oc2c1 [compound 43] | > 128 | > 128 | – | – | –
3 | COc1cc(OC)c2c(=O)c(-c3cc4c(cc3C)OCCO4)c(C)oc2c1 [compound 88] | – | – | 128 (≈ 347 µM) | >128 | –
4 | O=C(O)C1OC(Oc2ccc(-c3coc4cc(O)cc(O)c4c3=O)cc2)C(O)C(O)C1O (centres unmarked) [compound 95] | – | – | 128 (≈ 287 µM) | >128 | –
5 | COc1c(O)cc2oc(-c3ccc(O)cc3)c(OC)c(=O)c2c1O [compound 27] | > 128 | > 128 | – | – | –
6 | COc1cc2oc(-c3ccc(O)cc3)cc(=O)c2c(O)c1OC [compound 28] | > 128 | > 128 | – | – | –
7 | COc1ccc(-c2coc3cc(OC(C)=O)cc(OC(C)=O)c3c2=O)cc1 [compound 72] | > 128 | > 128 | – | – | –
8 | COc1cc(OC)c2c(=O)c(-c3ccc(OC4OC(CO)C(O)C(O)C4O)cc3)coc2c1 (centres unmarked) [compound 85] | – | – | >128 | >128 | –
9 | CCOC(=O)c1oc2cc(O)cc(O)c2c(=O)c1-c1ccc(OC)cc1 [compound 71] | 128 (≈ 359 µM) | 128 (≈ 359 µM) | – | – | –
10 | O=c1c(O)c(-c2ccc(O)cc2O)oc2cc(O)cc(O)c12 [compound 3] | – | – | >128 | >128 | –
11 | COc1ccc(-c2coc3cc(OC)cc(O)c3c2=O)cc1 [compound 74] | > 128 | > 128 | – | – | –
12 | COc1ccc(-c2cc(=O)c3c(O)c(O)c(O)cc3o2)cc1 [compound 34] | 128 (≈ 426 µM) | 128 (≈ 426 µM) | – | – | –
13 | Cc1c(O)cc(O)c2c(=O)cc(-c3ccccc3)oc12 [compound 8] | – | – | >128 | – | –
14 | O=C(O)COc1cc(O)c2c(=O)c(-c3ccc4c(c3)OCCO4)coc2c1 [compound 102] | 128 (≈ 346 µM) | 128 (≈ 346 µM) | – | – | –
15 | COc1cc(O)c(CN2CC(C)CC(C)C2)c2oc(-c3ccccc3)cc(=O)c12 (centres unmarked) [compound 49] | – | – | 128 (≈ 325 µM) | >128 | –
16 | CCOc1ccc(-c2coc3cc(OCC)cc(OCC)c3c2=O)cc1 [compound 75] | > 128 | > 128 | – | – | –
17 | COc1ccc2oc(-c3ccccc3)cc(=O)c2c1 [compound 16] | – | – | 128 (≈ 507 µM) | 128 (≈ 507 µM) | –
18 | COc1ccc(-c2cc(=O)c3c(OC)c(OC)c(OC)cc3o2)cc1O [compound 39] | 128 (≈ 357 µM) | 128 (≈ 357 µM) | – | – | –
19 | O=c1cc(-c2ccccc2)oc2c1ccc1ccccc12 [compound 58] | – | – | 128 (≈ 470 µM) | 128 (≈ 470 µM) | –
20 | O=c1cc(-c2ccc(O)cc2)oc2ccccc12 [compound 68, 2-(4-hydroxyphenyl)chromen-4-one] | 128 (≈ 537 µM) | 128 (≈ 537 µM) | – | – | –
21 | COc1ccc(-c2cc(=O)c3c(OC)c(OC)c(OC)c(OC)c3o2)cc1OC [compound 10] | – | – | 128 (≈ 318 µM) | – | –
22 | CC(C)Oc1ccc(-c2cc(=O)c3c(OC(C)C)cc(OC(C)C)c(I)c3o2)cc1 [compound 23] | – | – | >128 | >128 | –
23 | CCOC(=O)c1oc2cc(OC)cc(O)c2c(=O)c1-c1ccc(OC)cc1 [compound 91] | > 128 | > 128 | – | – | –
24 | COc1cc(OC)c2c(=O)cc(-c3ccccc3)oc2c1C1=COC(C)(C)C1=O [compound 46] | 128 (≈ 326 µM) | > 128 | – | – | –
25 | COc1c(O)cc2occ(-c3ccc(O)cc3)c(=O)c2c1O [compound 100] | 128 (≈ 426 µM) | 128 (≈ 426 µM) | – | – | –

Row | Compound | MIC [1, 3] [mg/L] | MIC [2, 4] [mg/L] | MIC (mg/L) FDA209P ([1]; Example 1, Tables 1 to 10) [mg/L] | MIC (mg/L) Mu50 [2] [mg/L] | also measured
26 | COc1cc(O)c2c(=O)c(-c3ccc(O)cc3)coc2c1 [compound 112] | > 128 | > 128 | – | – | –
27 | COc1cc(OC2OC(CO)C(O)C(O)C2O)c2c(=O)c(-c3ccc(O)cc3)coc2c1 (centres unmarked) [compound 96] | – | – | 128 (≈ 287 µM) | 128 (≈ 287 µM) | –
28 | COc1cc(-c2[o+]c3cc(O)cc(O)c3cc2O)cc(OC)c1O [compound 130] | – | – | 128 | 128 | –
29 | COc1c2c(cc3occ(-c4ccc(O)cc4)c(=O)c13)OCO2 [compound 97] | – | – | 128 (≈ 410 µM) | 128 (≈ 410 µM) | –
30 | CC(=O)C1C(=O)c2ccccc2N(c2ccccc2)C1=O (centres unmarked) [compound 56] | > 128 | > 128 | – | – | –
31 | O=c1c(O)c(-c2ccccc2S(=O)(=O)O)oc2ccccc12 [compound 54] | 128 (≈ 402 µM) | 128 (≈ 402 µM) | – | – | –
32 | COc1ccc(-c2coc3cc(OC)cc(OC)c3c2=O)cc1 [compound 76] | > 128 | > 128 | – | – | –
33 | COc1ccc(-c2oc3cc(OC)c(OC)c(O)c3c(=O)c2OC)cc1O [compound 33] | > 128 | 128 (≈ 342 µM) | – | – | –
34 | O=c1cc(-c2ccccc2)oc2cccc(O)c12 [compound 17] | – | – | 128 (≈ 537 µM) | 128 (≈ 537 µM) | –
35 | O=c1cc(-c2ccc(O[C@@H]3O[C@H](CO)[C@@H](O)[C@H](O)[C@H]3O)c(O)c2)oc2cc(O)cc(O)c12 [compound 64] | > 128 | > 128 | – | – | –
36 | COc1cc2oc(-c3ccc(O)c(O)c3)cc(=O)c2c(O)c1OC [compound 31] | > 128 | > 128 | – | – | –
37 | Cc1c(-c2ccccc2)oc2c(C(=O)OCCN3CCCCC3)cccc2c1=O [compound 55] | 128 (≈ 327 µM) | > 128 | – | – | –
38 | O=c1cc(-c2ccc(O)cc2)oc2c(C3CC3)c(O)cc(O)c12 [J-Q12.1, 8-Cyclopropyl-5,7-dihydroxy-2-(4-hydroxyphenyl)-chromen-4-one] | – | – | – | – | MIC ([1]; Example 8, Table 17, read-out: MIC FDA209P): 8 mg/L (≈ 25.8 µM); MIC ([2]; MU50, read-out: MIC Mu50, Example 8, Table 17): 8 mg/L (≈ 25.8 µM)
39 | COc1ccc(-c2cc(=O)c3c(OC)cc(OC)cc3o2)cc1 [compound 18] | – | – | 128 (≈ 410 µM) | 128 (≈ 410 µM) | –
40 | CC(=O)Oc1cc(OC(C)=O)c2c(=O)cc(-c3ccc(OC(C)=O)c(OC(C)=O)c3)oc2c1 [compound 36] | > 128 | > 128 | – | – | –
41 | COc1ccc(-c2cc(=O)c3c(OC)c(OC)c(OC)c(OC)c3o2)cc1 [compound 11] | – | – | >128 | >128 | –
42 | O=c1cc(-c2ccc(O)c(O)c2)oc2c(C3OC(CO)C(O)C(O)C3O)c(O)cc(O)c12 (centres unmarked) [compound 60] | – | – | >128 | >128 | –
43 | COc1ccc(-c2coc3cc(OC(=O)N(C)C)cc(OC)c3c2=O)cc1OC [compound 80] | – | – | – | – | MIC ([1]; read-out: MIC (mg/L) FDA209P): > 128 mg/L; MIC ([2]; MU50, read-out: MIC (mg/L) Mu50): > 128 mg/L
44 | COc1ccc(-c2coc3cc(OC4OC(CO)C(O)C(O)C4O)cc(O)c3c2=O)cc1 (centres unmarked) [compound 110] | – | – | 128 (≈ 287 µM) | 128 (≈ 287 µM) | –
45 | 2-phenylchromen-4-one (2-phenyl-1-benzopyran-4-one) [No. 25, reference compound] | – | – | – | – | MIC (mg/L) Mu50 (S80F, S84L) ([2]; Example 3, Table 13): 64 mg/L
46 | COc1cc(O)c(CN2CCCC(C)C2)c2oc(-c3ccccc3)cc(=O)c12 (centres unmarked) [compound 53] | – | – | 128 (≈ 337 µM) | – | –
47 | COc1cc(-c2oc3c(OC)c(OC)c(OC)c(OC)c3c(=O)c2OC)cc2c1OCO2 [compound 35] | – | – | >128 | – | –
48 | COc1cc(O)c2c(=O)c(-c3cc4c(cc3C)OCCO4)c(C)oc2c1 [compound 86] | – | – | >128 | – | –
49 | COc1c(O)cc2oc(-c3ccc(O)cc3)cc(=O)c2c1O [compound 26] | – | – | – | – | MIC ([1]; read-out: MIC (mg/L) FDA209P): > 128 mg/L
50 | CCc1oc2cc(O)cc(O)c2c(=O)c1-c1ccc(OC)cc1 [compound 90] | 128 (≈ 410 µM) | – | – | – | –
